Results from patent publication US9090600B2, “Fungicidal 4-substituted-3-{phenyl[(heterocyclylmethoxy)imino]methyl}-1,2,4-oxadizol-5(4H)-one derivatives” (BAYER INTELLECTUAL PROPERTY GMBH, priority 2011, dated 2015).
Marks after values point to notes of the source that are not given here.

What was measured:
[1] = tested on: Phytophthora infestans; format: in vivo; details: tomato plants, spray, 500 ppm, grading 5 days after contamination
[2] = pH 2.7

SMILES	Eff. % [1] [%]	LogP [2]
CC(Oc1ccccc1Cl)C(=O)Nc1nc(CO/N=C(/c2ccccc2)c2noc(=O)n2C)cs1 (racemic) [Example 366]	94	4.07 [a]
CC(C)CC(C)OC(=O)Nc1cccc(CO/N=C(/c2ccc(F)cc2)c2noc(=O)n2C)n1 (racemic) [Example 383]	70	4.77 [a]
CCC(C(=O)Nc1cccc(CO/N=C(/c2ccccc2)c2noc(=O)n2C)n1)c1ccccc1 (racemic) [Example 386]	80	4.23 [a]
CC(OCC1CC1)C(=O)Nc1cccc(CO/N=C(/c2ccccc2)c2noc(=O)n2C)n1 (racemic) [Example 390]	100	3.78 [a]
Cn1c(/C(=N\OCc2csc(NC(=O)c3ccccc3F)n2)c2ccccc2)noc1=O [Example 27]	100	3.44 [a]
Cn1c(/C(=N\OCc2cccc(NC(=O)Cc3ccccc3Cl)n2)c2ccccc2)noc1=O [Example 29]	100	3.76 [a]
CCCCCCCC(=O)Nc1cccc(CO/N=C(/c2ccccc2)c2noc(=O)n2C)n1 [Example 32]	100	4.71 [a]
CCCOC(=O)Nc1cccc(CO/N=C(/c2ccccc2)c2noc(=O)n2C)n1 [Example 33]	100	3.62 [a]
CC(C)CCOC(=O)Nc1nc(CO/N=C(/c2ccccc2)c2noc(=O)n2C)cs1 [Example 47]	100	4.06 [a]
CCOCCC(=O)Nc1cccc(CO/N=C(/c2ccccc2)c2noc(=O)n2C)n1 [Example 48]	98	2.96 [a]
CC(=O)Nc1cccc(CO/N=C(/c2ccccc2)c2noc(=O)n2C)n1 [Example 52]	100	2.44 [a]
Cn1c(/C(=N\OCc2csc(NC(=O)COc3ccc(Br)cc3)n2)c2ccccc2)noc1=O [Example 55]	100	3.94 [a]
CCC(C)CCOC(=O)Nc1cccc(CO/N=C(/c2ccccc2)c2noc(=O)n2C)n1 (stereo not shown) [Example 56]	100	4.78 [a]
CCn1c(/C(=N\OCc2cccc(NC(=O)OC3CCCCC3)n2)c2ccccc2)noc1=O [Example 61]	100	4.77 [a]
Cn1c(/C(=N\OCc2csc(NC(=O)OCC(C)(C)C)n2)c2ccccc2)noc1=O [Example 72]	97	4.01 [a]
Cn1c(/C(=N\OCc2csc(NC(=O)Oc3ccccc3)n2)c2ccccc2)noc1=O [Example 75]	90	3.48 [a]
Cn1c(/C(=N\OCc2cccc(NC(=O)CC3CC4CCC3C4)n2)c2ccccc2)noc1=O (stereo not shown) [Example 78]	100	4.39 [a]
Cn1c(/C(=N\OCc2cccc(NC(=O)OCC(C)(C)c3ccccc3)n2)c2ccccc2)noc1=O [Example 79]	88	4.71 [a]
Cn1c(/C(=N\OCc2csc(NC(=O)c3ccccc3Br)n2)c2ccccc2)noc1=O [Example 81]	78	3.51 [a]
Cc1ccccc1OC(C)C(=O)Nc1nc(CO/N=C(/c2ccccc2)c2noc(=O)n2C)cs1 (stereo not shown) [Example 82]	99	4.12 [a]
Cc1cccc(/C(=N/OCc2cccc(N(C(=O)OC(C)(C)C)C(=O)OC(C)(C)C)n2)c2noc(=O)n2C)c1 [Example 87]	95	4.77 [a]

SMILES	Eff. % [1] [%]	LogP [2]
Cn1c(/C(=N\OCc2cccc(NC(=O)OCCc3ccc(F)cc3)n2)c2ccccc2)noc1=O [Example 89]	99	4.19 [a]
COc1ccccc1C(=O)Nc1nc(CO/N=C(/c2ccccc2)c2noc(=O)n2C)cs1 [Example 91]	85	3.71 [a]
CCCCOC(C)C(=O)Nc1cccc(CO/N=C(/c2ccccc2)c2noc(=O)n2C)n1 (stereo not shown) [Example 93]	99	4.3 [a]
CCCCCCCCC(=O)Nc1cccc(CO/N=C(/c2ccccc2)c2noc(=O)n2C)n1 [Example 98]	99	5.11 [a]
COc1ccc(CC(=O)Nc2cccc(CO/N=C(/c3cccc(OC)c3)c3noc(=O)n3C)n2)cc1 [Example 101]	97	3.51 [a]
Cn1c(/C(=N\OCc2csc(NC(=O)OC3CCCC3)n2)c2ccccc2)noc1=O [Example 103]	80	3.76 [a]
Cn1c(/C(=N\OCc2cccc(NC(=O)OCCc3ccccc3Cl)n2)c2ccccc2)noc1=O [Example 106]	75	4.56 [a]
CCCCCCOC(=O)Nc1cccc(CO/N=C(/c2ccccc2)c2noc(=O)n2C)n1 [Example 107]	100	4.85 [a]
Cn1c(/C(=N\OCc2cccc(NC(=O)OC3CCCC3)n2)c2ccccc2)noc1=O [Example 110]	98	4.09 [a]
COc1cccc(/C(=N/OCc2cccc(NC(=O)OC3CCCCC3)n2)c2noc(=O)n2C)c1 [Example 112]	73	4.49 [a]
Cn1c(/C(=N\OCc2cccc(NC(=O)c3ccccc3F)n2)c2ccccc2)noc1=O [Example 114]	100	3.73 [a]
Cn1c(/C(=N\OCc2cccc(NC(=O)C3CCC3)n2)c2ccccc2)noc1=O [Example 118]	100	3.27 [a]
COC(=O)C(C)OC(=O)Nc1cccc(CO/N=C(/c2ccccc2)c2noc(=O)n2C)n1 (stereo not shown) [Example 119]	97	3.17 [a]
Cn1c(/C(=N\OCc2csc(NC(=O)COc3ccc(Cl)cc3Cl)n2)c2ccccc2)noc1=O [Example 123]	98	4.23 [a]
C#CCC(C)OC(=O)Nc1cccc(CO/N=C(/c2ccccc2)c2noc(=O)n2CC)n1 (stereo not shown) [Example 127]	100	3.81 [a]
CCC(C)C(=O)Nc1cccc(CO/N=C(/c2ccccc2)c2noc(=O)n2C)n1 (stereo not shown) [Example 132]	97	3.41 [a]
Cc1ccccc1CCOC(=O)Nc1cccc(CO/N=C(/c2ccccc2)c2noc(=O)n2C)n1 [Example 133]	88	4.51 [a]
Cn1c(/C(=N\OCc2cccc(NC(=O)c3ccco3)n2)c2ccccc2)noc1=O [Example 134]	99	3.13 [a]
Cn1c(/C(=N\OCc2cccc(NC(=O)C3(C)CC3)n2)c2ccccc2)noc1=O [Example 137]	98	3.31 [a]
Cn1c(/C(=N\OCc2cccc(NC(=O)Oc3ccccc3)n2)c2ccccc2)noc1=O [Example 138]	97	3.73 [a]
Cn1c(/C(=N\OCc2cccc(NC(=O)C(C)(C)C)n2)c2cccc(F)c2)noc1=O [Example 139]	100	3.61 [a]

SMILES	Eff. % [1] [%]	LogP [2]
Cc1cccc(/C(=N/OCc2cccc(NC(=O)OC(C)(C)C)n2)c2noc(=O)n2C)c1 [Example 142]	100	4.34 [a]
Cn1c(/C(=N\OCc2csc(NC(=O)c3cccc(I)c3)n2)c2ccccc2)noc1=O [Example 143]	75	4.19 [a]
Cc1ccc(C(=O)Nc2cccc(CO/N=C(/c3ccccc3)c3noc(=O)n3C)n2)cc1 [Example 144]	95	3.85 [a]
CC(COC(=O)Nc1cccc(CO/N=C(/c2ccccc2)c2noc(=O)n2C)n1)c1ccccc1 (stereo not shown) [Example 145]	83	4.46 [a]
Cn1c(/C(=N\OCc2cccc(NC(=O)CC34CC5CC(CC(C5)C3)C4)n2)c2ccccc2)noc1=O [Example 146]	93	5.08 [a]
Cn1c(/C(=N\OCc2cccc(NC(=O)C3CCCCC3)n2)c2ccccc2)noc1=O [Example 147]	100	3.92 [a]
CC(C)=CCC(=O)Nc1cccc(CO/N=C(/c2ccccc2)c2noc(=O)n2C)n1 [Example 153]	100	3.59 [a]
CC(Oc1cccc(Br)c1)C(=O)Nc1nc(CO/N=C(/c2ccccc2)c2noc(=O)n2C)cs1 (stereo not shown) [Example 155]	92	4.17 [a]
CCCCCOC(=O)Nc1cccc(CO/N=C(/c2ccc(F)cc2)c2noc(=O)n2C)n1 [Example 161]	92	4.51 [a]
Cn1c(/C(=N\OCc2cccc(NC(=O)C3(c4ccccc4)CC3)n2)c2ccccc2)noc1=O [Example 165]	70	4.43 [a]
Cc1ccoc1C(=O)Nc1cccc(CO/N=C(/c2ccccc2)c2noc(=O)n2C)n1 [Example 170]	100	3.71 [a]
COc1ccccc1CCOC(=O)Nc1cccc(CO/N=C(/c2ccccc2)c2noc(=O)n2C)n1 [Example 175]	93	4.31 [a]
CCCCC(=O)Nc1cccc(CO/N=C(/c2ccccc2)c2noc(=O)n2CC)n1 [Example 176]	100	3.76 [a]
CC(C)C(=O)Nc1cccc(CO/N=C(/c2ccccc2)c2noc(=O)n2C)n1 [Example 177]	100	3.11 [a]
Cn1c(/C(=N\OCc2cccc(NC(=O)c3ccccc3Cl)n2)c2ccccc2)noc1=O [Example 178]	99	3.64 [a]
CC(C)CCOC(=O)Nc1cccc(CO/N=C(/c2ccccc2)c2noc(=O)n2C)n1 [Example 182]	100	4.39 [a]
COc1ccccc1CCC(=O)Nc1cccc(CO/N=C(/c2ccccc2)c2noc(=O)n2C)n1 [Example 184]	99	3.87 [a]
Cn1c(/C(=N\OCc2cccc(NC(=O)OCCF)n2)c2ccccc2)noc1=O [compound 551]		2.96 [a]
CC(C)c1cccc(OC(=O)Nc2cccc(CO/N=C(/c3ccccc3)c3noc(=O)n3C)n2)c1 [compound 553]		4.64 [a]
CCOC(=O)COC(=O)Nc1cccc(CO/N=C(/c2ccccc2)c2noc(=O)n2C)n1 [compound 554]		3.21 [a]
